Read-outs that look alike come from different tables or passages of the source.
What was measured:
OccJ S91G = target: T1, OccJ S91G (Agrobacterium tumefaciens, UniProt P0A4F8, S91G); test: OccJ S91G ligand binding, fluorescence titration; settings: intrinsic protein fluorescence titration; 20 °C; pH 8.0
T1 construct: The mature LAO expression plasmid, LAO-Q122A, OccJ-S91G and OccJ-N202D were chemically synthesized; pET-28a); host or cells: E. coli BL21
Experimental: (§1) Binding of ligands to OccJ, NocT, LAO and protein mutants was monitored by autofluorescence by exciting the protein at a wavelength of 295 nm and monitoring the quenching of fluorescence emission of tryptophans at 335 nm. All experiments were performed at 20 °C in 96 wells plates (1/2 Area Plate-96F, Perkin Elmer) using Tecan Infinite M1000 reader (Tecan), in 50 mM Tris-HCl pH 8.0, 150 mM NaCl buffer with a fixed amount of proteins (1 µM) and increasing concentrations of ligand. […] The data were analysed using Origin® 7 software and fitted to the equation f = ΔFluorescencemax * abs(x)/(K D + abs(x)).

OccJ N202D = target: T2, OccJ N202D (Agrobacterium tumefaciens, UniProt P0A4F8, N202D); format: binding; settings: ITC, 20 °C
T2 construct: The mature LAO expression plasmid, LAO-Q122A, OccJ-S91G and OccJ-N202D were chemically synthesized; pET-28a); host or cells: E. coli BL21
Experimental: (§2) Isothermal titration microcalorimetry experiments were performed with an ITC200 isothermal titration calorimeter from MicroCal (GE Healthcare). The experiments were carried out at 20 °C. Protein concentration in the microcalorimeter cell (0.2 mL) varied from 20 to 150 µM. Nineteen injections of 2 µL of ligand solution (amino acids, opines and octopine derivatives) at concentration ranging from 240 µM to 1.5 mM were performed at intervals of 180 s while stirring at 500 rpm. The experimental data were fitted to theoretical titration curves with software supplied by MicroCal (ORIGIN®). This software uses the relationship between the heat generated by each injection and ΔH (enthalpy change in kcal/mol), Ka (the association binding constant in M^−1), n (the number of binding sites), total protein concentration and free and total ligand concentrations.

OccJ WT [1] = target: T3, OccJ WT (Agrobacterium tumefaciens, UniProt P0A4F8); test: OccJ WT ligand binding, isothermal titration microcalorimetry; settings: ITC, 20 °C
T3 construct: The mature PBP OccJ (256 aa without the signal peptide) expression plasmid was obtained by cloning the occJ gene lacking the first twenty residues; hexahistidine (C); made in house; host or cells: E. coli BL21
Experimental: as §2

OccJ WT [2] = target: T3, OccJ WT; test: biochemical; format: binding
Experimental: as §1

LAO Q122A = target: T4, LAO Q122A (Salmonella typhimurium, UniProt P02911, Q144A); test: LAO Q122A ligand binding, ITC; parameters: species or system Salmonella enterica
T4 construct: The mature LAO expression plasmid, LAO-Q122A, OccJ-S91G and OccJ-N202D were chemically synthesized; pET-28a); host or cells: E. coli BL21
Experimental: as §2

NocT WT [3] = target: T5, NocT WT (Agrobacterium fabrum, UniProt P35120); settings: F/ITC; amino acids; ref [6]; cited from earlier work
T5 construct: Cloning of mature OccJ, NocT-G97S, OccJ-S91G, OccJ-N202D, LAO and LAO-Q122A; made in house

LAO = target: LAO; parameters: method as in PMID 1400387; settings: ref [20]; cited from earlier work
LAO WT = target: T6, LAO WT (Salmonella typhimurium, UniProt P02911); test: biochemical; format: binding, Salmonella enterica
T6 construct: The mature LAO expression plasmid, LAO-Q122A, OccJ-S91G and OccJ-N202D were chemically synthesized; pET-28a); host or cells: E. coli BL21
Experimental: as §2

NocT WT [4] = target: T5, NocT WT; format: binding, Agrobacterium tumefaciens; settings: fluorescence titration; 20 °C; pH 8.0; octopine family members and analogues; read-out: Kd (F)
Experimental: as §1

NocT WT [5] = target: T5, NocT WT; format: binding, Agrobacterium tumefaciens; settings: ITC, 20 °C
Experimental: as §2

[6] = intrinsic protein fluorescence titration, 20 °C, 50 mM Tris-HCl pH 8.0, 150 mM NaCl, 1 µM protein
[7] = intrinsic protein fluorescence titration, 20 °C, 50 mM Tris-HCl pH 8.0, 150 mM NaCl, 1 µM protein, read-out: K D (F)

T3 sequence (P0A4F8 21-276): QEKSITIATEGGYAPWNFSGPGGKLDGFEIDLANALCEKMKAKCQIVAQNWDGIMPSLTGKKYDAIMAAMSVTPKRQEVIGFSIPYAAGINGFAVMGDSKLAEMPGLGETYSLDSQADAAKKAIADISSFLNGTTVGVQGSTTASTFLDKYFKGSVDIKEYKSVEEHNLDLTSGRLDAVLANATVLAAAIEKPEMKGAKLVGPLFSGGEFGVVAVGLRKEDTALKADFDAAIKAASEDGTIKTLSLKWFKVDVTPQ
T6 sequence (P02911 23-260): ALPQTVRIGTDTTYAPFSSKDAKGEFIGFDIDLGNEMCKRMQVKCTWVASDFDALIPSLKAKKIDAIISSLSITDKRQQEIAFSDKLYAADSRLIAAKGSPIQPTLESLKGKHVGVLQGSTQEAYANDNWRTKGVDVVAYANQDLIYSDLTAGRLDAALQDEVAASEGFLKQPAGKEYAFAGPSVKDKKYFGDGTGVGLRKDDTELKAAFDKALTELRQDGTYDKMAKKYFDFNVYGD
T4 sequence (P02911 23-260 Q144A): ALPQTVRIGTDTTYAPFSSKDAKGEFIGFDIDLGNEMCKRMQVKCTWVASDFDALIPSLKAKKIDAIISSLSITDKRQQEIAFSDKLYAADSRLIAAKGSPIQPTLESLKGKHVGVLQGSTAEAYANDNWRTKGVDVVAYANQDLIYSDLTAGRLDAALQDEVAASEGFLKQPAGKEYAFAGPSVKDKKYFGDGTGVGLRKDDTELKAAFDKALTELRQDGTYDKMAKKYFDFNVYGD
T2 sequence (P0A4F8 21-276 N202D): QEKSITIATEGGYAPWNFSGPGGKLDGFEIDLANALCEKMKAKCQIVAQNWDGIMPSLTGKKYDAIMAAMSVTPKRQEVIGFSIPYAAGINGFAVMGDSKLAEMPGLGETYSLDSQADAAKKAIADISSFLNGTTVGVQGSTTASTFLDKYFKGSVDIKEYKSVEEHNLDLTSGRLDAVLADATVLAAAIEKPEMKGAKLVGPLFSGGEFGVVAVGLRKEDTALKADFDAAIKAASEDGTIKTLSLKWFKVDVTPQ
T5 sequence (P35120 26-283): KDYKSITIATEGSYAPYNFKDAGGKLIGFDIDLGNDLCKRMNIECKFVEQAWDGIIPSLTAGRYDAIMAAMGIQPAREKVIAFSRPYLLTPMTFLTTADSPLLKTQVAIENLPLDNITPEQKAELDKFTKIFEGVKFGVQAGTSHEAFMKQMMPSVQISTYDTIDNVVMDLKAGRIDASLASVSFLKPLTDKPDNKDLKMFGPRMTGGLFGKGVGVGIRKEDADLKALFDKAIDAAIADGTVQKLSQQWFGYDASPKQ
T1 sequence (P0A4F8 21-276 S91G): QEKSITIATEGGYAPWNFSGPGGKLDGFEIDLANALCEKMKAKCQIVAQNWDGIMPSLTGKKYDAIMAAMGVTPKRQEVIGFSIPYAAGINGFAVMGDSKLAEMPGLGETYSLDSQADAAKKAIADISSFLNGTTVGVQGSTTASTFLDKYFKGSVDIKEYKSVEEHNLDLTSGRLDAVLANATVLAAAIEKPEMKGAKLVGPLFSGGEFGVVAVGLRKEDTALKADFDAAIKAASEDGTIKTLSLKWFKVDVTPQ

| Compound | K D (F) (OccJ S91G) | Enthalpy (ΔH) (OccJ WT [1]) | Entropic contribution (-TΔS) (OccJ WT [1]) | Entropy (ΔS) (OccJ WT [1]) | Free enthalpy (ΔG) (OccJ WT [1]) | Kd (OccJ WT [1]) | Kd (OccJ WT [2]) | K D, amino acids (NocT WT [3]) | previous reported affinity (LAO) | K D (F) (OccJ WT [2]; [6]) | Kd (OccJ WT [2]; [7]) | Kd (NocT WT [4]) | other results |
| --- | --- | --- | --- | --- | --- | --- | --- | --- | --- | --- | --- | --- | --- |
| N=C(N)NCCC[C@H](N)C(=O)O [L-arginine] | can no longer bind | -4.208 kcal/mol | -1.755 kcal/mol | 5.99 cal/mol/deg | -5.964 kcal/mol | 35.7 µM | 7.2 ± 1 µM | does not interact | nanomolar range | – | – | – | Enthalpy (ΔH) (OccJ N202D): -0.632 kcal/mol; Entropic contribution (-TΔS) (OccJ N202D): -5.696 kcal/mol; Entropy (ΔS) (OccJ N202D): 19.3 cal/mol/deg; Free enthalpy (ΔG) (OccJ N202D): -6.328 kcal/mol; Kd (LAO Q122A): 0.12 ± 0.01 µM; fold lower affinity of LAO-Q122A compared with WT (LAO Q122A; ITC): 5 fold; Enthalpy (ΔH) (LAO Q122A; ITC, 20 °C): -6.853 kcal/mol; Entropic contribution (-TΔS) (LAO Q122A; ITC, 20 °C): -2.433 kcal/mol; Entropy (ΔS) (LAO Q122A; ITC, 20 °C): 8.3 cal/mol/deg; Free enthalpy (ΔG) (LAO Q122A; ITC, 20 °C): -9.286 kcal/mol; Kd (LAO WT): 0.024 ± 0.002 µM; Enthalpy (ΔH) (LAO WT; ITC, 20 °C): -10.91 kcal/mol; Entropic contribution (-TΔS) (LAO WT; ITC, 20 °C): 0.703 kcal/mol; Entropy (ΔS) (LAO WT; ITC, 20 °C): -2.4 cal/mol/deg; Free enthalpy (ΔG) (LAO WT; ITC, 20 °C): -10.207 kcal/mol |
| NCCCC[C@H](N)C(=O)O [L-lysine] | can no longer bind | -4.92 kcal/mol | -0.645 kcal/mol | 2.20 cal/mol/deg | -5.565 kcal/mol | 71 µM | 7.5 ± 2.1 µM | does not interact | nanomolar range | – | – | – | – |
| N[C@@H](Cc1c[nH]cn1)C(=O)O [histidine] | – | – | – | – | – | – | – | – | – | No fluorescence intensity change was detected | – | – | – |
| CC(N[C@@H](Cc1cnc[nH]1)C(=O)O)C(=O)O (some centres unmarked) [histopine] | – | -0.854 kcal/mol | -3.81 kcal/mol | 13 cal/mol/deg | -4.664 kcal/mol | 326 µM | – | – | – | micromolar range | 33.1 ± 3.5 µM | 84.4 ± 6.7 µM | – |
| N=C(N)NCCCC[C@H](NCC(=O)O)C(=O)O [homo-noroctopine] | – | -4.115 kcal/mol | -2.207 kcal/mol | 7.53 cal/mol/deg | -6.322 kcal/mol | 19.3 ± 1.4 µM | – | – | – | – | 4.63 ± 0.42 µM | 21.3 ± 2.1 µM | Enthalpy (ΔH) (NocT WT [5]): -1.195 kcal/mol; Entropic contribution (-TΔS) (NocT WT [5]): -4.309 kcal/mol; Entropy (ΔS) (NocT WT [5]): 14.7 cal/mol/deg; Free enthalpy (ΔG) (NocT WT [5]): -5.504 kcal/mol; Kd (NocT WT [5]): 79 ± 14 µM |
| C[C@@H](N[C@@H](CCCCN)C(=O)O)C(=O)O [lysopine] | – | -4.832 kcal/mol | -4.455 kcal/mol | 15.2 cal/mol/deg | -9.287 kcal/mol | 0.11 ± 0.02 µM | – | – | – | – | 0.14 ± 0.01 µM | 11.2 ± 3.5 µM | Kd (OccJ WT [2]; fluorescence titration, read-out: apparent dissociation constant K D): 0.14 ± 0.01 µM |

From paper PMC5740067 (Scientific Reports, 2017)
